Source: article PMC8227856, “Antibacterial Activity of a Promising Antibacterial Agent: 22-(4-(2-(4-Nitrophenyl-piperazin-1-yl)-acetyl)-piperazin-1-yl)-22-deoxypleuromutilin” (Molecules, 2021)
Converted amounts (≈) assume the structure as drawn. Where two headings read alike, the source gives them in different places.

Experiments:
[1] = Pharmacokinetic study in mice, plasma LC-MS/MS; assay type: in vivo
Protocol: Adult female mice fasted for 12 h before the experiment. The NPDM was administered intravenously at the dose of 10 mg/kg. Approximately 0.2 mL blood samples were collected from the ocular venous plexus at 0.083, 0.167, 0.25, 0.5, 0.75, 1, 2, 4, 6, 8, 12, and 24 h after administration. All samples were centrifuged at 3000 rpm for 10 min, then the plasma samples were separated and stored at −20 °C. After thawing at room temperature, samples were mixed with acetonitrile (HPLC grade, sample:acetonitrile = 1:4, v/v) and centrifuged at 12,000 rpm for 10 min. Then, the supernatant was purified by the 0.22 μm cellulose membrane filter and transferred into an autosampler vial for HPLC-MS/MS analysis. Information of the equipment and analysis conditions are available in the Supplemental Materials. The pharmacokinetic parameters of the NPDM were calculated using the non-compartmental model in WinNonlin 5.2 software (Pharsight, Mountain View, CA, USA).

[2] = Acute oral toxicity in mice; assay type: in vivo; conditions: for LD50 at 2 weeks: both sexes, mice, oral single dose; for LD50 at 2 weeks / Mortality / Mortality Rate: mouse, in vivo, po; for Mortality / Mortality Rate: both, 2 weeks
Protocol: The acute oral toxicity of NPDM was evaluated according to the method reported in the literature. Mice were divided into 6 groups (10 animals each group, half male and half female) and were fasted for 12 h before the experiment. The NPDM was dissolved in DMSO and suspended in 0.5% sodium carboxymethyl cellulose solution. The volumes of suspension by oral gavages were 0.1 mL/10 g. The vehicle control group received DMSO without drug. All animals were observed twice daily for symptoms and mortality for two weeks. At the end of the study, all surviving animals were sacrificed.

[3] = test system: MRSA ATCC 43300; assay: MBC assay; assay type: cell-based, Staphylococcus aureus
Protocol: (§1) Determination of MBCs refers to the minimum concentrations of antibacterial agents required to kill 99.9% of the test microorganisms after 24 h of incubation. After obtaining the MICs value, the 96-well plates were placed at 37 °C and incubated for 24 h. One hundred microliter aliquots of the bacterial suspensions were taken from the wells without visible bacterial growth and then plated onto MHA plates. […] The MBC assay was conducted at least in triplicate.

[4] = test system: S. aureus 144 (clinical strain); assay: MBC assay; assay type: cell-based; conditions: Staphylococcus aureus
Protocol: as §1

[5] = test system: S. aureus ATCC 29213; assay: MBC assay; assay type: cell-based; conditions: Staphylococcus aureus, ATCC29213
Protocol: as §1

[6] = test system: S. aureus AD3 (clinical strain); assay: MBC assay; assay type: cell-based; conditions: Staphylococcus aureus
Protocol: as §1

[7] = test system: MRSA ATCC 43300; assay: Time-kill assay; assay type: cell-based, Staphylococcus aureus
Protocol: (§2) The MRSA and S. aureus in the logarithmic phase were diluted to 10^6 CFU/mL with MHB. Then diverse concentrations of NPDM or tiamulin were added to the bacteria solution reaching the final concentration of 1 × MIC, 2 × MIC, 4 × MIC, and 8 × MIC, respectively. All bacterial inoculums were cultured at 37 °C with shaking. A total of 100 μL samples were taken from the subcultures at 0, 3, 6, 9, and 24 h, respectively, and continuously diluted 10-fold in sterile saline; then, 25 μL diluent was plated on the MHA plate. All plates were placed at 37 °C for 24 h. The total number of colonies on the plate was counted, and the results were expressed as log (CFU/mL).

[8] = test system: S. aureus ATCC 29213; assay: Time-kill assay; assay type: cell-based, Staphylococcus aureus
Protocol: as §2

[9] = test system: MRSA ATCC 43300; assay: MIC, broth dilution micro-method; assay type: cell-based; conditions: Staphylococcus aureus, 24 h, MHB
Protocol: (§3) The MICs of NPDM against MRSA were determined by the broth dilution micro-method. Briefly, the stock solution of NPDM and the reference drug tiamulin were diluted by a two-fold serial dilution method with MHB in a 96-well plate to provide concentration ranges of 16~0.032 μg/mL. Then 100 μL of bacterial suspensions in log phase were diluted to 10^6 CFU/mL with MHB and were added to each well to make the final concentrations of the test compounds ranging from 8 to 0.016 μg/mL. The bacterial suspension (no drugs but solvent) was used as the positive control and MHB (no cultures) was used as the negative control. […] The MICs assay was carried out in triplicate.

[10] = test system: S. aureus 144 (clinical strain); assay: MIC, broth dilution micro-method; assay type: cell-based; conditions: Staphylococcus aureus, 24 h, MHB
Protocol: as §3

[11] = test system: S. aureus ATCC 29213; assay: MIC, broth dilution micro-method; assay type: cell-based; conditions: Staphylococcus aureus, ATCC29213, 24 h, MHB
Protocol: as §3

[12] = test system: S. aureus AD3 (clinical strain); assay: MIC, broth dilution micro-method; assay type: cell-based; conditions: Staphylococcus aureus, 24 h, MHB
Protocol: as §3

[13] = test system: MRSA ATCC 43300; assay: Neutropenic mouse thigh infection model; assay type: in vivo, Staphylococcus aureus; conditions: 20 mg/kg i.v., neutropenic mice
Protocol: (§4) The mouse thigh infection model was performed as described in the literature with minor modifications. Briefly, female mice had induced neutropenia (neutrophil count ≤ 100/mm^3) by administered intraperitoneally cyclophosphamide on day 4 (150 mg/kg) and day 1 (100 mg/kg) before the experiment. A bacterial suspension of 0.1 mL (MRSA or S. aureus) containing approximately 10^7 CFU/mL microorganism was injected into the posterior thigh of mice to establish infection. Two hours after infection, mice were intravenously injected with NPDM or tiamulin at 20 mg/kg. After 24 h, thighs (six per group) were collected upon euthanasia. Then, thighs were weighed and homogenized with sterile saline. Tissue homogenate was continuously diluted 10-fold and plated on MHA plates for colony counts. SPSS 19 software was used for statistical analysis and t-tests.

[14] = test system: S. aureus ATCC 29213; assay: Neutropenic mouse thigh infection model; assay type: in vivo, Staphylococcus aureus; conditions: 20 mg/kg i.v., neutropenic mice
Protocol: as §4

[15] = test system: MRSA ATCC 43300; assay: Neutropenic mouse systemic infection model; assay type: in vivo, Staphylococcus aureus; conditions: 30 mg/kg i.v.
Protocol: The survival rate of mice was determined by the systemic infection model according to the literature with some modifications. Neutropenic mice (10 per group, half male and half female) were injected with 0.5 mL MRSA inoculum of 10^6 CFU/mL (100% minimum lethal dose) intraperitoneally. One hour after infection, the mice were administered with NPDM or tiamulin intravenously at a dose of 30 mg/kg body weight. Tiamulin was used as a reference drug. The survival of the mice was recorded for 7 days.

[16] = test system: MRSA ATCC 43300; assay: Galleria mellonella infection model; assay type: in vivo; conditions: Staphylococcus aureus, 120 h; Galleria mellonella larvae infected with MRSA, survival over 5 days
Protocol: The survival rate of Galleria mellonella was determined according to the literature with some modifications. Larvae of Galleria mellonella (16 per group) were injected with 10 μL of 10^8 CFU/mL MRSA inoculum into the last right proleg. Two hours after infection, larvae were injected with 10 μL of various doses (17.14, 25.71, 37.14, 57.14, and 85.71 mg/kg) of NPDM or tiamulin (used as reference drug) into the last left proleg. The larvae were maintained at 37 °C. Survival of the larvae was recorded daily for 5 days, and the ED50 was calculated.

[17] = test system: MRSA ATCC 43300; assay: Post-antibiotic effect (PAE) assay; assay type: cell-based, Staphylococcus aureus
Protocol: The PAE was carried out as described in the literature. The MRSA was diluted to 10^6 CFU/mL in MHB. The NPDM or tiamulin was added into the bacteria solution at the final concentrations of 2 × MIC and 4 × MIC. Then all tubes were incubated at 37 °C for 1 h or 2 h. Each of the above inoculums was diluted 1000-fold with pre-warmed MHB to remove the test compounds and placed in a water bath at 37 °C immediately. One hundred microliters of suspension were taken from each culture, diluted 10-fold in sterile saline, and inoculated on MHA plates at 0, 1, 2, 4, and 6 h after inoculation. The total number comprising the colonies was counted after incubation at 37 °C for 20 h. The PAE was calculated referring to published methods. The experiment was performed in triplicate.

[18] = test system: BRL-3A cells; assay: Cytotoxicity, MTT assay; assay type: cell-based; conditions: Rattus norvegicus, 16 h, read-out: 50% inhibition concentration (IC50), cell viability
Protocol: The cytotoxicity of NPDM was evaluated by the MTT assay as previously reported. Briefly, the medium containing 1 × 10^5 BRL-3A cells per 1 mL was seeded into a 96-well plate at 100 μL per well. After incubation for 48 h, media were replaced with 100 μL of serial dilutions of test compounds and incubated for 16 h. The absorbance (A) was measured at 490 nm by an automatic microplate reader (BIO-TEK Instrument Inc., Winooski, VT, USA). The cell viability was calculated according to Equation (1):(1) Cell viability (%) = (Asimple−Anegative)/(Apositive−Anegative)×100%
A graph was constructed by plotting the inhibition percentage versus various concentrations of NPDM and tiamulin, from which the IC50 of NPDM or tiamulin was calculated. The measurement was repeated in triplicate.

[19] = female, mouse, plasma, iv, 10 mg/kg i.v., non-compartmental

SMILES: C=C[C@]1(C)C[C@@H](OC(=O)CN2CCN(C(=O)CN3CCN(c4ccc([N+](=O)[O-])cc4)CC3)CC2)[C@]2(C)[C@H](C)CC[C@]3(CCC(=O)[C@H]32)[C@@H](C)[C@@H]1O [NPDM, 22-(4-(2-(4-nitrophenyl-piperazin-1-yl)-acetyl)-piperazin-1-yl)-22-deoxypleuromutilin]
- MRT ([1]; 10 mg/kg i.v., non-compartmental, 10 mg/kg): 18.6 ± 3 min
- clearance ([1]; female, mouse, plasma, 10 mg/kg, single intravenous administration): 46 mL/min/kg
- AUC(0-inf) [1, 19]: 3660 ± 370 ng·h/mL
- AUC(0-t) [1, 19]: 3650 ± 400 ng·h/mL
- Cmax [1, 19]: 8690 ± 740 ng/mL
- Tmax [1, 19]: 4.98 min
- half-life [1, 19]: 13.2 ± 2.4 min
- MRT ([1]; female, mouse, plasma, iv, 10 mg/kg, 10 mg/kg i.v., non-compartmental, read-out: MRT): 21.6 min
- Acute toxicity classification ([2]; LD50 in the range of 501~5000 mg/kg): low-toxic compound
- LD50 at 2 weeks ([2]; modified Karber's formula, read-out: LD50): 3760 mg/kg
- LD50 at 2 weeks ([2]; read-out: LD50 95% confidence interval): 3010 to 4710 mg/kg
- Mortality ([2]; 987.65 mg/kg): 1
- Mortality Rate ([2]; 987.65 mg/kg): 10%
- Mortality ([2]; 1481.48 mg/kg): 1
- Mortality Rate ([2]; 1481.48 mg/kg): 10%
- Mortality ([2]; 2222.22 mg/kg): 2
- Mortality Rate ([2]; 2222.22 mg/kg): 20%
- Mortality ([2]; 3333.33 mg/kg): 3
- Mortality Rate ([2]; 3333.33 mg/kg): 30%
- Mortality ([2]; 5000 mg/kg): 5
- Mortality Rate ([2]; 5000 mg/kg): 50%
- MBC ([3]; Staphylococcus aureus, MRSA ATCC 43300): 0.125 µg/mL (≈ 0.18 µM)
- MBC/MIC value ([3]; against MRSA): one
- MBC [4]: 0.5 µg/mL (≈ 0.721 µM)
- MBC [5]: 0.25 µg/mL (≈ 0.36 µM)
- MBC [6]: 0.5 µg/mL (≈ 0.721 µM)
- Time-kill activity at 2 × MIC ([7]; 2 × MIC): bactericidal activity
- Concentration showing bactericidal activity (≥3 log10 CFU/mL decrease) ([7]; after incubation for 24 h): ≥ 2 × MIC
- Concentration showing bacteriostatic effect [8]: ≥ 2 × MIC
- MIC [9]: 0.125 µg/mL (≈ 0.18 µM)
- MIC [10]: 0.125 µg/mL (≈ 0.18 µM)
- MIC [11]: 0.125 µg/mL (≈ 0.18 µM)
- MIC [12]: 0.125 µg/mL (≈ 0.18 µM)
- Reduction of mean MRSA counts in thighs vs untreated group ([13]; 24 h): ~ 1.61 log CFU/mL
- Average amount of MRSA inoculum in thighs ([13]; 24 h after treatment): (8.16 ± 3.70) × 10^7 CFU
- Average amount of S. aureus inoculum in thighs ([14]; 24 h after treatment): (1.23 ± 0.51) × 10^8 CFU
- Reduction of mean bacterial counts in thighs vs untreated group ([14]; S. aureus, 24 h): ~ 0.95 log CFU/mL
- Survival rate at the endpoint ([15]; lethal MRSA challenge, 7 days, neutropenic mice): 70%
- Survival rate higher than that of the tiamulin-treated group ([15]; difference vs tiamulin): 20%
- ED50 [16]: 50.5 mg/kg
- PAE ([17]; 2 × MIC, exposure for 1 h): 2.58 h
- PAE ([17]; 2 × MIC, exposure for 2 h): 3.62 h
- PAE ([17]; 4 × MIC, exposure for 1 h): 3.11 h
- PAE ([17]; 4 × MIC, exposure for 2 h): 4.03 h
- PAE longer than that of tiamulin ([17]; difference vs tiamulin): 1~2 h
- IC50 [18]: 9.64 µg/mL (≈ 13.9 µM)
